Test results as given in patent publication US11253524B2 (Gilead Sciences, Inc., priority 2018, dated 2022).
Marks after values point to notes of the source that are not given here.

Experiments:
[1] = In vivo BIC metabolism, plasma profile after oral [14C]BIC, rat; parameters: species or system Wistar Han Rat; conditions: rats, 0 to 168 hours post dose, ND = not detected
Text: (§1) Metabolic pathways included hydroxylation, oxidative defluorination, direct glucuronidation, and oxidation followed by phase II conjugation. In the monkey, BIC was metabolized through the oxidative pathways to a greater extent compared to rat and human.

[2] = In vivo BIC metabolism, plasma profile after oral [14C]BIC, monkey; parameters: species or system Cynomolgus Monkey; conditions: monkeys, 0 to 72 hours post dose, ND = not detected
Text: as §1

[3] = Phase 1 mass-balance study, [14C]bictegravir metabolite profiling in plasma, urine and feces; conditions: for % of administered dose in feces: feces pooled per individual subject, 0 to 144 hours postdose, average of 8 subjects; for % of plasma AUC0-72 h of total radioactivity: human plasma, AUC pool 0-72 h, single oral 100 mg [14C]bictegravir; for % of administered dose in urine: human urine pooled 0 to 96 hours postdose
Text: A total of eight patents were enrolled. Subjects were healthy male nonsmokers, 18 to 45 years of age, inclusive, with a body mass index (BMI) from 19 to 30 kg/m2, inclusive, normal 12-lead electrocardiogram (ECG), normal renal function, no significant medical history, and in good general health, as determined by the investigator at the screening evaluation performed no more than 28 days prior to the scheduled first dose.
Treatment involved a single, oral dose followed by a 6- to 21-day sample collection period, the exact duration of which was based on recovery of radiolabeled drug. […] Following administration, the dosing container was rinsed twice, each rinse with approximately 50 mL of cranberry juice, and administered to the subject. The entire study drug solution and cranberry juice rinse (total of approximately 140 mL) was taken within a 10 minute window. […]
Urine: Metabolite profiling and quantitation in urine was performed with samples pooled for individual subjects within the period of 0 to 96 hours postdose.
Feces: Metabolite profiling and quantitation in feces was performed with the feces samples pooled for individual subjects.
Metabolite Quantitation: LC-Radio-chromatograms of the pooled plasma, urine, and feces samples were obtained.

OATP1B3 = molecular target: T1, OATP1B3 (Homo sapiens, UniProt Q9NPD5); assay: OATP1B3 inhibition assay using Fluo-3 as probe substrate, CHO cells; format: cell-based; parameters: expressed in transfected cells; host or cells: CHO cells; conditions: for Maximum inhibition at highest test conc. (% of control) / inhibition at 1 h, 100 µM: OATP1B3, Fluo-3, at 100 μM; for IC50 (μM): OATP1B3, Fluo-3, NIO = no interaction observed; for inhibition at 1 h, 100 µM: human, CHO cells transfected with human OATP1B3, pH 7.4, probe Fluo-3 (2 μM), read-out: Maximum inhibition at highest test conc. (% of control)
T1 sequence (Q9NPD5 1-702): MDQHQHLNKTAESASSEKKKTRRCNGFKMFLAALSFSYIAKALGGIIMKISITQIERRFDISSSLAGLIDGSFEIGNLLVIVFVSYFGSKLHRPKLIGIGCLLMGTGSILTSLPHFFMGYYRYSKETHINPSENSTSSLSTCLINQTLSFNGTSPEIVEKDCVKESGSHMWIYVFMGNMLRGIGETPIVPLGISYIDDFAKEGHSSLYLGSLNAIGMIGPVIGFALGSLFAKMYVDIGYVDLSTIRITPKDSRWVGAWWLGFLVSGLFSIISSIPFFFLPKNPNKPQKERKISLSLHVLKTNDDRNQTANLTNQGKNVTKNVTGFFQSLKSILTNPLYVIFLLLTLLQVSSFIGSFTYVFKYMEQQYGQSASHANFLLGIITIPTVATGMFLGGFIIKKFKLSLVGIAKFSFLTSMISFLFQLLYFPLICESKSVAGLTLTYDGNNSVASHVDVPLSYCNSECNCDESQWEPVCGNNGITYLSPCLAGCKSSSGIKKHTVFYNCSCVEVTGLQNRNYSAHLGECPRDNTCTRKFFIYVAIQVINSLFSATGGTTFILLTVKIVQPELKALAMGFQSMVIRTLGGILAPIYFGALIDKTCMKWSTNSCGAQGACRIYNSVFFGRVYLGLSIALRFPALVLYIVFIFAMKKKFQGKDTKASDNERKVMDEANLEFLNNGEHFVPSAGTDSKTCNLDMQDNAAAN
Method: Chinese Hamster Ovary (CHO) cells, either wild type or transfected with the genes encoding human OATP1B1 or OATP1B3, were maintained in Dulbecco's Modification of Eagle's Medium (DMEM) containing 1,000 mg/L D-glucose, L-glutamine, 25 mM HEPES buffer, and 110 mg/L sodium pyruvate, 1% Pen/Strep, 10% fetal bovine serum, 0.05 mg/mL L-proline and 0.5 mg/mL of geneticin G-418. Cells were maintained in incubators set at 37° C., 90% humidity and 5% CO2. OATP1B1 or OATP1B3 overexpressing CHO cells were seeded in BioCoat Poly-D-Lysine coated 96 well black cell culture plates with clear bottoms at a density of 1×10^5 cells/well. Sodium butyrate (10 mM) was added to the OATP1B1 and OATP1B3 cells to increase the protein expression level, and the cells were grown to confluence overnight. The assay buffer contained 142 mM NaCl, 5 mM KCl, 1 mM KH2PO4, 1.2 mM MgSO4, 1.5 mM CaCl2, 5 mM Glucose and 12.5 mM HEPES (pH 7.4). After removal of the media and before adding test compounds, the cells were washed twice with 37° C. assay buffer followed by a 0.5 h pre-incubation with assay buffer. Test compounds were serially diluted in DMSO at 250-fold of final test concentrations to create the compound spiking solutions. Compounds were then spiked into assay buffer containing 2 μM Fluo-3 and incubated with cells for 1 h. Following removal of assay buffer containing Fluo-3 and test compound, cells were washed 3 times with 200 μl of ice cold assay buffer and then lysed at room temperature for 15 minutes in a lysis buffer containing […] in a 1 mM CaCl2 solution. Substrate accumulations were determined for Fluo-3 fluorescence at an excitation of 485 nm and emission of 530 nm.
Percent inhibition was calculated according to the following equation: % inhibition=[1−{[OATP]i−[WT]ni}/{[OATP]ni−[WT]ni}]*100 where: [OATP]i represent the substrate accumulation in the presence of test compound for either OATP1B1, OATP1B3, or OATP2B1 cells; [OATP]ni represents the substrate accumulation in the absence of test compound for either OATP1B1, OATP1B3, or OATP2B1 cells, respectively; and [WT]ni represents the substrate accumulation in the absence of test compound for wild type cells or Mock cells, respectively. IC50 Determination in Transporter Assays
IC50 was determined according to the procedures described in Example 5. […] Results are reported as NIO (no interaction observed).

SMILES: O=C(NCc1c(F)cc(F)cc1F)c1cn2c(c(O)c1=O)C(=O)N1[C@H]3CC[C@H](C3)O[C@@H]1C2 [BIC, bictegravir, reference compound]
- % of Total Radioactivity in AUC Pooled Plasma [1]: 76.5%
- % of Total Radioactivity in AUC Pooled Plasma [2]: 80.2%
- % of administered dose in feces [3]: 30.6%
- % of plasma AUC0-72 h of total radioactivity [3]: 67.9%
- % of plasma AUC0-72 h of total radioactivity ([3]; listed as [^14C]Bictegravir): 67.9%
- % of plasma AUC0-72 h of total radioactivity ([3]; listed as [^14C]bictegravir): approximately 67.9%
- % of administered dose in urine [3]: 3.6%

SMILES: O=C(NCc1c(F)cc(F)cc1F)c1cn2c(c(O[C@@H]3O[C@H](C(=O)O)[C@@H](O)[C@H](O)[C@H]3O)c1=O)C(=O)N1[C@H]3CC[C@H](C3)O[C@@H]1C2 [Metabolite M15]
- Maximum inhibition at highest test conc. (% of control) (OATP1B3; 100 µM): minimal to no inhibition
- IC50 (μM) (OATP1B3): NIO
- inhibition at 1 h, 100 µM (OATP1B3): 0%
- % of Total Radioactivity in AUC Pooled Plasma [2]: 0.55%
- % of plasma AUC0-72 h of total radioactivity [3]: 8.6%
- % of administered dose in urine [3]: 21.4%

SMILES: O=C(NCc1c(F)cc(F)c(OS(=O)(=O)O)c1F)c1cn2c(c(O)c1=O)C(=O)N1C(C2)O[C@@H]2CC[C@H]1C2 (stereo partly shown) [Metabolite M20]
- % of Total Radioactivity in AUC Pooled Plasma [1]: 11.3%
- Maximum inhibition at highest test conc. (% of control) (OATP1B3): minimal to no inhibition
- IC50 (μM) (OATP1B3): NIO
- inhibition at 1 h, 100 µM (OATP1B3): 18%
- % of Total Radioactivity in AUC Pooled Plasma [2]: 0.77%
- % of plasma AUC0-72 h of total radioactivity [3]: 20.1%

SMILES: O=C(NCc1c(F)cc(F)c(O)c1F)c1cn2c(c(O)c1=O)C(=O)N1[C@H]3CC[C@H](C3)O[C@@H]1C2 [Metabolite M23]
- % of Total Radioactivity in AUC Pooled Plasma [1]: 2.36%
- Maximum inhibition at highest test conc. (% of control) (OATP1B3): minimal to no inhibition
- IC50 (μM) (OATP1B3): NIO
- inhibition at 1 h, 100 µM (OATP1B3): 20%
- % of administered dose in feces [3]: 3.6%
- % of plasma AUC0-72 h of total radioactivity [3]: 0.2^c %
